{"source": "patent US10576082B2", "about": "“ErbB2 regulates autophagic flux to modulate the proteostasis of APP-CTFs in alzheimer's disease” (Academia Sinica, priority 2016, dated 2020)", "key": {"[1]": {"system": "γ-secretase-mediated proteolysis of C99 (CG cells)", "assay": "Cell-based C99-specific γ-secretase assay (CG cells, Gal4 luciferase reporter)", "conditions": "1 μM inhibitor, 1 μg/ml tetracycline, 37° C., 24 h", "method": "(A) Adherent CG and NG cells (20,000 cells/well) were treated with 1 μM of the indicated ErbB1/2-selective tyrosine kinase inhibitors in the presence of 1 μg/ml tetracycline at 37° C. for 24 h. The luminescence signals emitted by cells treated with vehicle alone (Ctrl, 0.1% DMSO) were referred to as 100% relative luminescence signals. The luminescence signals generated by γ-secretase-mediated proteolysis of C99 (CG) or NΔE (NG) were determined using the Steady-Glo luciferase assay reagent. (B) HEK293 overexpressing C99-YFP cells were treated with 1 μM of the indicated ErbB1/2 tyrosine kinase inhibitors at 37° C. for 24 h. Clarified lysates were analyzed by Western blotting and quantified by Image J. (C) HEK293 overexpressing ErbB1 ErbB2, CFP-tagged C99, and YFP-tagged NΔE cells were infected with gene-targeting shRNA-encoding lentivirus (shErbB1 or shErbB2) at 37° C. for 48 h. Clarified lysates containing equivalent amounts of proteins were examined by Western blotting and quantified by Image J. (D) CG and NG cells were infected with gene-targeting shRNA-encoding lentivirus at 37° C. for 48 h. Following induction with 1 μg/ml tetracycline for 24 h. […] Data are shown as the mean±SD from three independent experiments, and were analyzed by Student's t-tests. * p<0.05. […]"}, "[2]": {"system": "HEK293 cells overexpressing C99-YFP", "assay": "Western blotting of HEK293 cells overexpressing C99-YFP", "assay_type": "cell-based", "conditions": "1 μM, 37° C., 24 h", "method": "(A) Adherent CG and NG cells (20,000 cells/well) were treated with 1 μM of the indicated ErbB1/2-selective tyrosine kinase inhibitors in the presence of 1 μg/ml tetracycline at 37° C. for 24 h. The luminescence signals emitted by cells treated with vehicle alone (Ctrl, 0.1% DMSO) were referred to as 100% relative luminescence signals. The luminescence signals generated by γ-secretase-mediated proteolysis of C99 (CG) or NΔE (NG) were determined using the Steady-Glo luciferase assay reagent. (B) HEK293 overexpressing C99-YFP cells were treated with 1 μM of the indicated ErbB1/2 tyrosine kinase inhibitors at 37° C. for 24 h. Clarified lysates were analyzed by Western blotting and quantified by Image J. (C) HEK293 overexpressing ErbB1 ErbB2, CFP-tagged C99, and YFP-tagged NΔE cells were infected with gene-targeting shRNA-encoding lentivirus (shErbB1 or shErbB2) at 37° C. for 48 h. Clarified lysates containing equivalent amounts of proteins were examined by Western blotting and quantified by Image J. (D) CG and NG cells were infected with gene-targeting shRNA-encoding lentivirus at 37° C. for 48 h. Following induction with 1 μg/ml tetracycline for 24 h. Cells infected with empty lentivirus (w/o) or LacZ-targeting shRNA lentivirus (shCtrl_a and shCtrl_b) were included as controls. Data are shown as the mean±SD from three independent experiments, and were analyzed by Student's t-tests. * p<0.05.\n(§1) Clarified lysates containing equivalent amounts of proteins were analyzed by Western blotting. (B, C) HEK293 overexpressing CFP-LC3 cells were infected with lentivirus encoding shRNA targeting LacZ ErbB2, or ErbB2 plus ATG5 for 48 h. The autophagy induction was analyzed by fluorescence confocal microscopy. The number of CFP-LC3 puncta per cell was quantified. The levels of LC3-I, LC3-II, and GAPDH were analyzed by Western blotting. (D, E) HEK293 cells overexpressing ErbB1, ErbB2, CFP-tagged C99, and YFP-tagged NΔE were infected with lentivirus encoding shRNA targeting LacZ (Ctrl), ErbB1, or ErbB2 for 48 h. Infection mixtures were replaced with 2 ml of fresh culture medium, and infected cells were then incubated at 37° C. for an additional 24 h. The levels of LC3-1, LC3-II, and p62 were analyzed by Western blotting and quantified by NIH Image J. Conditional media were harvested and processed for determination of secreted Aβ40 using a colourimetric Aβ40-specific ELISA kit. (F, G) HEK293 cells overexpressing C99-YFP were treated with vehicle (DMSO) or 1 μM CL-387,785 at 37° C. for 24 h and analyzed by Western blotting. Conditional media were harvested for determination of secreted Aβ40. The quantitative data are shown as mean±SD from three independent experiments, and were analyzed by Student's t-tests. * p<0.05.\nPreparation of cell extracts. To prepare total cell-free extracts, we harvested cells in 6-well microplates with ice-cold PBS containing 20 mM EDTA, and then pelleted the cells by centrifugation. PBS-washed cells were resuspended in a lysis buffer containing 1% Triton X-100, 50 mM Tris-HCl pH 7.5, 150 mM NaCl, 25 mM β-glycerophosphate, 1 mM Na3VO4, and protease inhibitor cocktail set V (Merck). Following the removal of cell debris by centrifugation, clarified lysates were processed for immunoprecipitation, Western blotting, or quantification of BCA protein content.\nWestern blotting analysis. Protein concentration was measured with the BCA Protein Assay Kit (Pierce). […]"}, "[3]": {"system": "HEK293 cells overexpressing C99-YFP", "assay": "Secreted Aβ40 ELISA, conditional media of HEK293 cells overexpressing C99-YFP", "assay_type": "cell-based", "conditions": "1 μM, 37° C., 24 h", "method": "as §1, with “Infection mixtures were replaced with 2 ml of fresh culture medium, and infected cells were then incubated at 37° C. for an additional 24 h.” left out, “(F, G) HEK293 cells overexpressing C99-YFP were treated with vehicle (DMSO) or 1 μM CL-387,785 at 37° C. for 24 h and analyzed by Western blotting. Conditional media were harvested for determination of secreted Aβ40.” left out\nCell-based γ-secretase assays for the nuclear function of AICD or NICD. […] Cellular luminescence was determined by the addition of Steady-Glo Luciferase Assay reagents (PROMEGA™), according to the manufacturer's instructions. […] The level of secreted Aβ40 was quantified using a human Aβ40 sandwich ELISA kit (Invitrogen) according to the manufacturer's instructions."}, "[4]": {"system": "zebrafish embryos expressing GFP-tagged C99", "assay": "Phenotype of C99-expressing zebrafish embryos (curved trunk, Notch-dependent somite development)", "assay_type": "in vivo", "conditions": "treated from 48 hpf to 72 hpf, scored at 72 hpf, n=90"}, "[5]": {"system": "APPswe/PS1ΔE9 double transgenic mice", "assay": "Brain Aβ40 and Aβ42 ELISA in treated APPswe/PS1ΔE9 mice", "assay_type": "in vivo, mouse", "conditions": "5 mg/kg daily oral, 20 days, normalized to total protein"}}}
{"smiles": "CC#CC(=O)Nc1ccc2ncnc(Nc3cccc(Br)c3)c2c1", "note": "[CL-387,785, N-[4-[(3-bromophenyl)amino]-6-quinazolinyl]-2-butynamide]", "values": [{"measurement": "processing of C99 (luminescence signal in CG cells)", "setting": "[1]", "value": "effectively blocked the processing of C99"}, {"measurement": "LC3-II/LC3-I ratio", "setting": "[2]", "value": "concurrent increase"}, {"measurement": "level of AICD", "setting": "[2]", "value": "concomitantly decreased"}, {"measurement": "level of C99", "setting": "[2]", "value": "concomitantly decreased"}, {"measurement": "level of ErbB2", "setting": "[2]", "value": "concomitantly decreased"}, {"measurement": "level of p62", "setting": "[2]", "value": "significant reduction"}, {"measurement": "secreted Aβ40 production", "setting": "[3]", "value": "effectively decreased"}, {"measurement": "embryo phenotype (trunk, tail, pigmentation; developmental defects)", "setting": "[4]", "value": "all but one CL-387,785-treated embryos exhibited wild-type trunks and tails with normal pigmentation"}, {"measurement": "reduction in the level of Aβ40 in brain", "setting": "[5]", "value": "approximately 40%"}, {"measurement": "reduction in the level of Aβ42 in brain", "setting": "[5]", "value": "approximately 40%"}]}
